Experimental data from patent US12590123B2, “Compounds and methods for treating cancer, viral infections, and allergic conditions” (Washington University, priority 2019, dated 2026).
Starred links: 1 amine or outer side, 2 acyl side, 3 side chain; linkers in the order of their positions; H or OH if unused. Positions of bridges follow the written chain, without caps; N, C: chain ends. Non-standard residues stand in square brackets, D forms with d. Residues, ends and D or L forms follow the SMILES beside them. X6 = N=C(N)NCCC[C@H](N[*:1])C(=O)c1nc2ccc(C(=O)[*:2])cc2s1

Experiments:
matriptase = target: T1, matriptase (Homo sapiens, UniProt Q9Y5Y6); assay: Fluorescent kinetic enzyme assay of matriptase activity (Boc-QAR-AMC); assay type: biochemical; conditions: Table 2; read-out: Matriptase (IC50 nM)
T1 construct: purchased R&D Systems 3946-SE-010
T1 sequence (Q9Y5Y6 615-855 limits assumed): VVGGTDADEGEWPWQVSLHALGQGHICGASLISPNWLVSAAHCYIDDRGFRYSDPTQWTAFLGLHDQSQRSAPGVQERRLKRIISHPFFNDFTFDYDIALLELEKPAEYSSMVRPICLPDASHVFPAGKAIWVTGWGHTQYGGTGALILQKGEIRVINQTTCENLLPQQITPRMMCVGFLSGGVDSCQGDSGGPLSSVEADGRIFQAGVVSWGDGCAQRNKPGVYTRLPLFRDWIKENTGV
Procedure: After thirty minutes of incubation at room temperature, Boc-QLR-AMC substrate was added (HGFA assay) or Boc-QAR-AMC substrate (matriptase, and hepsin assays). […] From a plot of the mean reaction velocity versus the inhibitor concentration, a non-linear four parameter curve fit was performed using GraphPad Prism (GraphPad Software, San Diego, CA) to determine inhibitor IC50s. The IC50 values were determined from the average of three or more separate experimental determinations. Apparent Ki values were calculated using the Cheng and Prusoff equation (Ki=IC50/(1+[S]/Km).
Inhibitors were pre-incubated with protease followed by the addition of the substrate. Inhibition of substrate proteolysis derived fluorescence was monitored kinetically over a period of one hour.

activated hepsin = target: T2, activated hepsin (Homo sapiens, UniProt P05981); assay: Fluorescent kinetic enzyme assay of hepsin activity (Boc-QAR-AMC); assay type: biochemical; conditions: Table 2; read-out: Hepsin (IC50 nM)
T2 construct: purchased R&D Systems 4776-SE-010

[1] = target: T3, recombinant HGFA serine protease domain (Homo sapiens, UniProt Q04756); assay: Fluorescent kinetic enzyme assay of HGFA activity (Boc-QLR-AMC); assay type: biochemical; conditions: Table 2; read-out: HGFA (IC50 nM)
T3 construct: His6 tag (N); seven amino acid spacer plus TEV cleavage site (N); made in house; host or cells: High 5 insect cells (baculovirus; Sf9 for virus production)
T3 sequence (Q04756 373-655): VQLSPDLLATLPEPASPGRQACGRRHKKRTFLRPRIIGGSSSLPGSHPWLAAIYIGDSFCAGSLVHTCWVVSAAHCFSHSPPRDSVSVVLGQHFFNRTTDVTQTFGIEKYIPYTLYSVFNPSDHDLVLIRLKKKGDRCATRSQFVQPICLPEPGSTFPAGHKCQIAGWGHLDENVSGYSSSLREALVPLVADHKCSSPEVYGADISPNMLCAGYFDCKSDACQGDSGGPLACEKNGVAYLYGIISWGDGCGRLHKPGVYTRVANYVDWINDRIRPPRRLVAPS
Description: The compounds prepared in Examples 1 to 8 were subjected to a series of inhibitions studies. The compounds were first tested in an HGFA enzymatic assay using the fluorogenic substrate Boc-QLR-AMC with a recombinant form of the HGFA serine protease domain.
This PCR product was cloned into the SfoI-HindIII sites of a modified pFastBac HT baculovirus expression vector (Addgene, Cambridge, MA). This vector contains a six amino His tag followed by a seven amino spacer and a seven amino acid TEV cleavage site placed immediately downstream of the honey bee melittin signal peptide. Using a modified Bac to Bac Expression System (Life Technologies, Carlsbad, CA), recombinant HGFA bacmids were obtained by transforming DH10Bac Escherichia coli cells. To obtain HGFA containing baculovirus, purified bacmids were transfected into Sf9 insect cells. After 5 days in culture at 27° C., media was harvested from transfected Sf9 cells. This media was used to prepare baculovirus infected insect cells (BIICs). These BIIICs were used to infect High 5 insect cells. Four days post infection, media was harvested, and recombinant protein was prepared as follows. Media was chilled to 4° C. and spun at 4000×g for 20 minutes (all subsequent steps were performed at 4° C. unless noted). Clarified media was passed first through a Whatman GF/B 1 um (#1821-047, GE Healthcare Life Sciences, Piscataway, NJ) and then a 0.22 μm PES membrane (#99955, TPP Techno Plastic Products AG, Trasadingen, Switzerland) and then concentrated using a Pall Centramate tangential flow system and Centramate T-series Cassette (#OS010T12, Pall Corporation, Port Washington, NY). Concentrated media was then buffer exchanged in two steps, five volumes of 50 mM Na-phosphate, 500 mM NaCl, pH 6.2, followed by five volumes of 50 mM Na-phosphate, 500 mM NaCl, pH 7.5. […] After mixing this slurry for 12 hours, nickel agarose beads were allowed to settle by gravity and then loaded into a column. Beads were washed with buffer (25 mM Na-phosphate, 500 mM NaCl, 25 mM imidazole, pH 8) and the bound protein eluted using (25 mM Na-phosphate, 500 mM NaCl, 250 mM imidazole, pH 8). Using a Amicon Ultra-4 Centrifugal filters (#UFC801008, Merck Millipore, Ltd., Tullagreen, Ireland), peak protein fractions were concentrated and run over a Superdex-200 10/300 GL column (GE Healthcare Life Sciences, Piscataway, NJ) in 10 mM Tris, 200 mM NaCl, 0.2 mM EDTA, pH 8. HGFA containing fractions were pooled, concentrated, made 50% glycerol, and stored at minus 20° C. Protein was quantitated using a modified Lowry protein assay (#500-0006, Bio-Rad Laboratories, Hercules, CA) and specific activity determined using Boc-QLR-AMC substrate.
Fluorescent kinetic enzyme assays of HGFA, matriptase, and hepsin activity: Compounds (0-20 μM final concentration in reaction) were diluted in DMSO (2% DMSO final concentration in reaction) and then mixed with either recombinant HGFA serine protease domain, matriptase (#3946-SE-010, R&D Systems, Minneapolis, Minnesota), or activated hepsin* (#4776-SE-010, R&D Systems, Minneapolis, Minnesota) in black 384 well plates (Corning #3575. Coming, NY). The final assay concentration for HGFA, matriptase, and hepsin, were 6.25 nM, 0.2 nM, and 0.3 nM, respectively in TNC buffer (25 mM Tris, 150 mM NaCl, 5 mM CaCl2, 0.01% Triton X-100, pH 8). After thirty minutes of incubation at room temperature, Boc-QLR-AMC substrate was added (HGFA assay) or Boc-QAR-AMC substrate (matriptase, and hepsin assays). Fluorescence (excitation at 380 nm and emission at 460 nm) was kinetically measured at room temperature over a 1 hour time period using a Biotek Synergy 2 plate reader (Winnoski, VT). From a plot of the mean reaction velocity versus the inhibitor concentration, a non-linear four parameter curve fit was performed using GraphPad Prism (GraphPad Software, San Diego, CA) to determine inhibitor IC50s. The IC50 values were determined from the average of three or more separate experimental determinations. […]

Factor Xa = Factor Xa (Homo sapiens, UniProt P00742); assay: Chromogenic kinetic enzyme assay of Factor Xa (S2222); assay type: biochemical; conditions: Table 2; chromogenic assay; read-out: Factor Xa* (IC50 nM)
Procedure: (§1) Using GraphPad Prism (GraphPad Software, San Diego, CA), a four-parameter curve fit was used to determine the inhibitor IC50s from a plot of the mean reaction velocity versus the inhibitor concentration. The IC50 values represent the average of three or more separate experimental determinations. Apparent Ki values were calculated from the IC50 values using the Cheng and Prusoff equation (Ki=IC50/(1+[S]/Km).
(§2) Using GraphPad Prism version 6.04 software program, (GraphPad Software, San Diego, CA, graphpad.com), a four parameter curve fit was used to determine the inhibitor IC50s from a plot of the mean reaction velocity versus the inhibitor concentration.
(§3) Fluorescent inhibitor and chromogenic proteolytic assays were performed for compounds prepared in Example 11 in general accordance with the procedures described in Example 9.

recombinant thrombin = recombinant thrombin (Homo sapiens, UniProt P00734); assay: Chromogenic kinetic enzyme assay of thrombin (S2238); assay type: biochemical; conditions: Table 2; chromogenic assay; read-out: Thrombin* (IC50 nM)
Procedure: as §1, §2, §3

[2] = system: VSVpp (SARS-2-S) entry into TMPRSS2-positive Calu-3 cells

Factor Xa, sequence (P00742 235-488 limits assumed): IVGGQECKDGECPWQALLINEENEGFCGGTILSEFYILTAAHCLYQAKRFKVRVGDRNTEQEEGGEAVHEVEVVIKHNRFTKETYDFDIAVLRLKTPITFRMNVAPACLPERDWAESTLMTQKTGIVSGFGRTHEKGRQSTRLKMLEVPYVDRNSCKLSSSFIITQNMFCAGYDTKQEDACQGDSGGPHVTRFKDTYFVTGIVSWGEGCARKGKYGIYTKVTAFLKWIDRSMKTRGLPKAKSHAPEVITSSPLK
Factor Xa, sequence (P00742 41-179 partner limits assumed): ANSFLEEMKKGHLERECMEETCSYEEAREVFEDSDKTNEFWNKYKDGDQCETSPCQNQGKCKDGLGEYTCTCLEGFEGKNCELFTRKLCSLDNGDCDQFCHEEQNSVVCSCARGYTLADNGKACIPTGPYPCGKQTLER
T2 sequence (P05981 163-417 limits assumed): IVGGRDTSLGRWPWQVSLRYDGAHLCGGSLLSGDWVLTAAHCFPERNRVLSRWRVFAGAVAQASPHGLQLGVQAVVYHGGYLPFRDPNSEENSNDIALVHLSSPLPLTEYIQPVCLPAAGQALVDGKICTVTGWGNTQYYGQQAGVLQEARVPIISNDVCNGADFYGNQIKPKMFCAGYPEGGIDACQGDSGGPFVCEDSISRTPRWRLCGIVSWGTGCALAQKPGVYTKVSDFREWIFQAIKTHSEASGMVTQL
T2 sequence (P05981 1-162 partner limits assumed): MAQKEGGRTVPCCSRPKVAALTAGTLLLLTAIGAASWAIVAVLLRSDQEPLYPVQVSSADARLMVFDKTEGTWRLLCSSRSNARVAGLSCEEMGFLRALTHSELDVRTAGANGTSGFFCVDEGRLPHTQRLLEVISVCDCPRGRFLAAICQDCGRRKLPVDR

Structure (SMILES)	IC50 (matriptase) [nM]	IC50 (activated hepsin) [nM]	IC50 [1] [nM]	IC50 (Factor Xa) [nM]	IC50 (recombinant thrombin) [nM]	EC50 [2] [nM]	Calu-3 EC50 (nM) [2]
CC(=O)N[C@H]1CC(=O)NCCCC[C@@H](C(=O)N[C@@H](CCCNC(=N)N)C(=O)c2nc3ccccc3s2)NC(=O)[C@H](C(C)C)NC1=O [VD3167, (3S,6S,14S)-6-acetamido-N—((S)-1-(benzo[d]thiazol-2-yl)-5-guanidino-1-oxopentan-2-yl)-3-isopropyl-2,5,8-trioxo-1,4,9-triazacyclotetradecane-14-carboxamide]	3.2	7.8	1830	1510	> 20000	–	–
CC(=O)N[C@H]1CC(=O)NCCCC[C@@H](C(=O)N[C@@H](CCCNC(=N)N)C(=O)c2nc3ccccc3s2)NC(=O)CNC1=O [VD3174, (6S,14S)-6-acetamido-N—((S)-1-(benzo[d]thiazol-2-yl)-5-guanidino-1-oxopentan-2-yl)-2,5,8-trioxo-1,4,9-triazacyclotetradecane-14-carboxamide]	6.3	5.9	4310	6180	> 20000	–	–
CC(=O)N[C@H]1CC(=O)NCCCC[C@@H](C(=O)N[C@@H](CCCNC(=N)N)C(=O)c2nc3ccc(C(=O)N[C@@H](C(N)=O)C(C)C)cc3s2)NC(=O)[C@H](CC(C)C)NC1=O [VD3056, 2-(((3S,6S,14S)-6-acetamido-3-isobutyl-2,5,8-trioxo-1,4,9-triazacyclotetradecane-14-carbonyl)-L-arginyl)-N—((R)-1-amino-3-methyl-1-oxobutan-2-yl)benzo[d]thiazole-6-carboxamide] (Ac-DLK[X6][dV]-NH2; lactam 1-3)	11.2	5.4	5380	118	33.9	–	–
CC(=O)N[C@@H](CCCCN)C(=O)N[C@@H](CCC(N)=O)C(=O)N[C@@H](CC(C)C)C(=O)N[C@@H](CCCNC(=N)N)C(=O)c1nc2ccccc2s1 [ZFH7006, Ac-KQLR-kbt]	–	–	–	–	–	78	–
CC(=O)N[C@H]1CC(=O)N(C)CCCC[C@@H](C(=O)N[C@@H](CCCNC(=N)N)C(=O)c2nc3ccccc3s2)NC(=O)[C@H](CC(C)C)NC1=O [VD4192B]	1.1	14.9	12300	678	17100	–	–
CC(=O)N[C@H]1CCCCNC(=O)CCC(C(=O)N[C@@H](CCCNC(=N)N)C(=O)c2nc3ccccc3s2)NC(=O)[C@H](CCCNC(=N)N)NC1=O (some centres unmarked) [VD2109B]	0.07	0.04	2520	155	> 20000	–	–
CC(=O)N[C@H]1CC(=O)NCCCC[C@@H](C(=O)N[C@@H](CCCNC(=N)N)C(=O)c2nc3ccccc3s2)NC(=O)[C@H](CCC(N)=O)NC1=O [VD3152, (3S,6S,14S)-6-acetamido-3-(3-amino-3-oxopropyl)-N—((S)-1-(benzo[d]thiazol-2-yl)-5-guanidino-1-oxopentan-2-yl)-2,5,8-trioxo-1,4,9-triazacyclotetradecane-14-carboxamide]	–	–	–	–	–	138	almost equivalent activity
CC(=O)N[C@H]1CC(=O)N(C)CCCC[C@@H](C(=O)N[C@@H](CCCNC(=N)N)C(=O)c2nc3ccccc3s2)NC(=O)[C@H](CC(C)C)NC1=O [VD4192C1]	111	0.97	7730	> 20000	> 20000	–	–
CC(=O)N[C@H]1CC(=O)NCCCC[C@@H](C(=O)N[C@@H](CCCNC(=N)N)C(=O)c2nc3ccccc3s2)NC(=O)[C@H]([C@H](C)O)NC1=O [VD3157, (3S,6S,14S)-6-acetamido-N—((S)-1-(benzo[d]thiazol-2-yl)-5-guanidino-1-oxopentan-2-yl)-3-((S)-1-hydroxyethyl)-2,5,8-trioxo-1,4,9-triazacyclotetradecane-14-carboxamide]	3.7	5.8	11800	13300	> 20000	–	–
CC(=O)N[C@H]1Cc2ccc(cc2)OCCCC[C@@H](C(=O)N[C@@H](CCCNC(=N)N)C(=O)c2nc3ccccc3s2)NC(=O)[C@@H](Cc2c[nH]c3ccccc23)NC1=O [VD4162A]	30.8	–	52	7470	> 20000	–	–
CC(=O)N[C@H]1CC(=O)NCCCC[C@@H](C(=O)N[C@@H](CCCNC(=N)N)C(=O)c2nc3ccccc3s2)NC(=O)[C@H](Cc2ccc(O)cc2)NC1=O [VD3158, (3S,6S,14S)-6-acetamido-N—((S)-1-(benzo[d]thiazol-2-yl)-5-guanidino-1-oxopentan-2-yl)-3-(4-hydroxybenzyl)-2,5,8-trioxo-1,4,9-triazacyclotetradecane-14-carboxamide]	6.1	44	–	17000	> 20000	–	–
CC(=O)N[C@H]1CC(=O)N(C)CCCC[C@@H](C(=O)N[C@@H](CCCNC(=N)N)C(=O)c2nc3ccccc3s2)NC(=O)[C@H](CC(C)C)NC1=O [VD4192C2]	23.5	1.75	8560	18500	> 20000	–	–
CC(=O)N[C@H]1CC(=O)NCCCC[C@@H](C(=O)N[C@@H](CCCNC(=N)N)C(=O)c2nc3ccccc3s2)NC(=O)[C@H](CC(N)=O)NC1=O [VD3166, (3S,6S,14S)-6-acetamido-3-(2-amino-2-oxoethyl)-N—((S)-1-(benzo[d]thiazol-2-yl)-5-guanidino-1-oxopentan-2-yl)-2,5,8-trioxo-1,4,9-triazacyclotetradecane-14-carboxamide]	3.8	10.1	15800	4650	> 20000	–	–
